Patent US20230271770A1, “Anti-Viral Pharmaceutical Formulations Administered Via Devices for Lung Targeted Delivery” (priority 2020, published 2023)
Read-outs that look alike come from different tables or passages of the source.

Assays:
SARS-CoV-2 [1] = conditions: Reference [4]; read-out: EC 50, for SARS-Cov2, Treatment 48 hrs; cited from earlier work
SARS-CoV-2 [2] = conditions: Reference [3], cited from earlier work
SARS-CoV-2 [3] = conditions: Reference [3]; read-out: EC 50, for SARS-Cov2, Treatment 24 hrs; cited from earlier work
[4] = In-line Cascade Impactor (Andersen) evaluation, MDI actuator through elbow connection and ventilator tubing; format: physicochemical; set-up: Delivered <1.1 mcm / Delivered <4.7 mcm: unit not given here; conditions: Alveoli, in-Line Tube (55 cm), HCQB-e, connection w/inner channel, Ave, 5% EtOH, 200 mcg
Method: An example of a ventilator device, for example ventilator device 1700A, was tested and compared to a self-administrable, handheld MDI to determine the target site delivery efficiency in the ventilator circuit as compared to the MDI delivery efficiency without the ventilator circuit (e.g. no elbow connector or ventilator tubing).
Prime HCQ valve by discharging a predetermined number of actuations to waste. Discharge 10 actuations with actuator H004B-a into the cascade impaction sampling apparatus through an elbow connection w/inner channel and an in-line tubing (55 cm long).
Prime HCQ valve by discharging a predetermined number of actuations to waste. Discharge 10 actuations with actuator H004B-c into the cascade impaction sampling apparatus through an elbow connection with an inner channel and an in-line tubing (55 cm long).
Prime HCQ valve by discharging a predetermined number of actuations to waste. […]

With `CCN(CC)CCCC(C)Nc1ccnc2cc(Cl)ccc12` (stereo not shown) [CQ, chloroquine] as the compound, how does the EC50 (SARS-CoV-2 [1]) read?
Its EC50 is 1.13 µM.

What about the EC50 (SARS-CoV-2 [2]; read-out: EC 50, for SARS-Cov2, Prophylactic Treatment 24 hrs) of the same compound?
The EC50 was greater than 100 µM.

And the EC50 (SARS-CoV-2 [2]; read-out: EC 50, for SARS-Cov2, Prophylactic Treatment 48 hrs)?
Its EC50 is 18 µM.

And the EC50 (SARS-CoV-2 [3])?
The EC50 was 23.9 µM.

For `CCN(CCO)CCCC(C)Nc1ccnc2cc(Cl)ccc12` (stereo not shown) [HICQ Base], which “Delivery Rate” value ([4]; <1.1 mcm) is on record?
The value was 33.0%.

And the “Delivered <1.1 mcm” value [4]?
Its value is 66.0.

Which EC50 (SARS-CoV-2 [1]) does the source give for `NC(=O)c1ncn([C@@H]2O[C@H](CO)[C@@H](O)[C@H]2O)n1` [Ribavirin] here?
Its EC50 is 106 µM.
